The record followed here is publication PMC10917278, “Structural insights into the modulation Of SOD1 aggregation By a fungal metabolite Phialomustin-B: Therapeutic potential in ALS” (PLOS ONE, 2024).

The target in experiment [1] is T1, SOD1^A4V (Homo sapiens, UniProt P00441, A5V).
T1 construct: The full-length constructs of SOD1-wild type (aa: 1–145) and its corresponding SOD1 disease mutant, SOD1^A4V; His-tag (cleaved yes); made in house; host or cells: E. coli BL21 DE3
In words: Thioflavin T (ThT) fluorescence aggregation assay, SOD1^A4V. The class given is biochemical. As to conditions: for kapp / t50 / tlag: 37 °C, reduced conditions. Here is the method: Following the co-crystal structure elucidation of SOD1 in complex with PB, we wanted to identify the effect of PB on the aggregation of SOD1^WT and its disease mutant, SOD1^A4V. A comprehensive analysis of the anti-aggregation propensity of PB was performed using a ThT-based fluorescence assay and analytical size-exclusion based chromatography (SEC) assay. We used Thioflavin-T, a β-sheet formation reporter, to assess the aggregation of SOD1. Time lag (tlag) is a kinetic parameter used to evaluate the lag phase of fibrillation. Fibril elongation was used to evaluate the rate of β sheet formation. […] Similar effects on lag time are also observed for SOD1^A4V. […] Moreover, ThT-based aggregation assays were also performed for the PB site-specific mutants, SOD1^A123F, SOD1^K9F, SOD1^L42R, and SOD1^G10P (S4a, S4c, S4e and S4g Fig). As expected based on the abovementioned MST results, the aggregation analysis is inconclusive as these mutants, which correspond to the ligand binding residues, cause a loss of protein-ligand interactions.
Fig 6 Aggregation studies of metallated and reduced SOD1^WT and SOD1^A4V on treatment with PB. ThT fluorescence was monitored during the co-incubation of metallated SOD1^WT (50 μM) (a) or SOD1^A4V (50 μM) (b) with PB at 1:30 molar ratio at 37 °C with continuous shaking, under reduced conditions. The values were normalized to the maximal ThT intensity elicited by SOD1^WT or SOD1^A4V and fitted to a Boltzmann sigmoidal equation. The control and PB-treated species were compared to analyse the effects of PB on the aggregation of SOD1^WT and SOD1^A4V. Error bars indicate the standard deviation. Analytical SEC of metallated SOD1^WT (50 μM) (c) and SOD1^A4V (50 μM) (d) with PB were analyzed under reducing conditions before and after 24 hrs and 48 hrs incubation at 37 °C. The first peak eluting at the volume was denoted as oligomerized SOD1^WT/SOD1^A4V (L). The second, third, and fourth peaks were calculated as trimer (T), dimer (D), and monomer (M) species of SOD1^WT/SOD1^A4V running at 14.5 ml, 15.7 ml, and 16.5 ml, respectively. […] The monomer (M), dimer (D), trimer (T), and large aggregate (L) species are shown as green, purple, red, and black dotted lines, respectively. All the experiments were performed for n = 3 biological replicates.
Fig 7 Aggregation studies of de-metallated and reduced SOD1^WT and SOD1^A4V on treatment with PB. ThT fluorescence was monitored during the co-incubation of de-metallated SOD1^WT (50 μM) (a) or SOD1^A4V (50 μM) (b) with PB at 1:30 molar ratio at 37 °C with continuous shaking, under reduced conditions. The values were normalized to the maximal ThT intensity elicited by SOD1^WT or SOD1^A4V and fitted to a Boltzmann sigmoidal equation. The control and PB-treated species were compared to analyse PB’s effects on the aggregation of SOD1^WT and SOD1^A4V. Analytical SEC of de-metallated SOD1^WT (50 μM) (a) and SOD1^A4V (50 μM) (b) with PB were analysed under reducing conditions before and after 24 hrs and 48 hrs incubation at 37 °C. The first peak eluting at the volume was denoted as oligomerized SOD1^WT (L) runs at 9.2 ml. The second, third, and fourth peaks were calculated as trimer (T), dimer (D), and monomer (M) species of SOD1^WT/SOD1^A4V running at 14.5 ml, 15.7 ml, and 16.5 ml, respectively. […] In the case of SOD1^A4V, PB eliminates the formation of large aggregates compared to the control (48hrs-EC, EC represents control with EDTA). The monomer (M), dimer (D), trimer (T), and large aggregate (L) species are shown as green, purple, red, and black dotted lines, respectively. All the experiments were performed for n = 3 biological replicates.
Aggregation assays were performed on SOD1^WT, the disease mutant A4V, and ligand-binding site-specific mutants to check the anti-aggregation activity of PB on the former. […] The ThT assay for the SOD1 aggregation was carried out per the recently published protocol. […]

The target in experiment [2] is T1, SOD1^A4V. In words: Analytical size-exclusion chromatography (SEC) aggregation assay, SOD1^A4V. Type of experiment: biochemical. As to the method: Fig 6 Aggregation studies of metallated and reduced SOD1^WT and SOD1^A4V on treatment with PB. ThT fluorescence was monitored during the co-incubation of metallated SOD1^WT (50 μM) (a) or SOD1^A4V (50 μM) (b) with PB at 1:30 molar ratio at 37 °C with continuous shaking, under reduced conditions. The values were normalized to the maximal ThT intensity elicited by SOD1^WT or SOD1^A4V and fitted to a Boltzmann sigmoidal equation. The control and PB-treated species were compared to analyse the effects of PB on the aggregation of SOD1^WT and SOD1^A4V. Error bars indicate the standard deviation. Analytical SEC of metallated SOD1^WT (50 μM) (c) and SOD1^A4V (50 μM) (d) with PB were analyzed under reducing conditions before and after 24 hrs and 48 hrs incubation at 37 °C. The first peak eluting at the volume was denoted as oligomerized SOD1^WT/SOD1^A4V (L). The second, third, and fourth peaks were calculated as trimer (T), dimer (D), and monomer (M) species of SOD1^WT/SOD1^A4V running at 14.5 ml, 15.7 ml, and 16.5 ml, respectively. […]
Fig 7 Aggregation studies of de-metallated and reduced SOD1^WT and SOD1^A4V on treatment with PB. ThT fluorescence was monitored during the co-incubation of de-metallated SOD1^WT (50 μM) (a) or SOD1^A4V (50 μM) (b) with PB at 1:30 molar ratio at 37 °C with continuous shaking, under reduced conditions. […] Analytical SEC of de-metallated SOD1^WT (50 μM) (a) and SOD1^A4V (50 μM) (b) with PB were analysed under reducing conditions before and after 24 hrs and 48 hrs incubation at 37 °C. […] The second, third, and fourth peaks were calculated as trimer (T), dimer (D), and monomer (M) species of SOD1^WT/SOD1^A4V running at 14.5 ml, 15.7 ml, and 16.5 ml, respectively. […]
The anti-aggregation activity of PB was validated on the SOD1^WT and the disease mutant (SOD1^A4V) through size exclusion chromatography. The analytical size-exclusion chromatography is a gold standard method for comprehensively evaluating protein species through their molecular weight variations detected by the protein peaks’ elution volume (Ve). […]

The mark [3] stands for this setting: De-metallated (5 mM EDTA) SOD1^A4V 50 μM with PB at 1:30 molar ratio.
Setting [4] is: Metallated SOD1^A4V 50 μM with PB at 1:30 molar ratio.

T1 sequence (P00441 whole entry A5V): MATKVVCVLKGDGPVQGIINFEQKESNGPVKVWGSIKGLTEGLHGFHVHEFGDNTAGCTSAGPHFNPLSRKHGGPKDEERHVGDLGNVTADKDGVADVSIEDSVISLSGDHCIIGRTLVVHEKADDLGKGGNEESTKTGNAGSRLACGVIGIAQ

Consider `CCCC[C@H](C)/C=C(C)/C=C/C(=O)O` [PB, (S, 2E, 4E)-4,6-dimethyldeca-2,4-dienoic acid], for which, in experiment [1] (setting [3]), the kapp came out at 0.05 h⁻¹, the t50 is 13.57 h and the tlag is on record as 13.55 h. Moreover, in experiment [1] (setting [4]), the kapp turned out to be 0.07 h⁻¹, the t50 is 10.45 h and the tlag is reported as 10.44 h. In addition, the “ThT signal of SOD1^A4V aggregation” value in experiment [1] (Metallated SOD1^A4V 50 μM, PB 1:30, versus control) is “drastic reduction in the ThT signal”. The “trimer population (SEC)” value in experiment [2] (De-metallated (EDTA) SOD1^A4V 50 μM, PB 30X, reducing conditions) was “reduces the trimer population”. Also, the “trimer populations (SEC)” value in experiment [2] (Metallated SOD1^A4V 50 μM, PB 60X, reducing conditions) is on record as “trimer populations were significantly reduced”. The “formation of toxic trimer species (SEC)” value in experiment [2] (Metallated SOD1^A4V 50 μM, PB at a ratio of 1:30, reducing conditions) is on record as “visibly reduced the formation of toxic trimer species”.
